Assay results: patent publication EP4613259A1, “PHARMACEUTICAL, DERMATOLOGICAL OR COSMETIC COMPOUNDS AND COMPOSITIONS FOR REDUCING MELANIN SYNTHESIS, STIMULATING TYPE I COLLAGEN PRODUCTION, SKIN DEPIGMENTATION AND/OR PROMOTING A SKIN ANTI-AGING EFFECT IN AN INDIVIDUAL OR ANIMAL, USES AND METHODS” (Chemyunion Ltda, priority 2022, dated 2024)
Where a SMILES comes first, the peptide text is derived from it. The star is where a group is joined. Palmitoyl = CCCCCCCCCCCCCCCC(=O)*

Tests used:
[1] = system: melanin synthesis in human skin fragments; assay: Inhibition of melanin synthesis in ex vivo human skin fragments (Fontana Masson staining, semi-quantification); format: cell-based; details: skin explants (n=5), 72h
Method: Example 1: Evaluation of inhibition of melanin synthesis in human skin fragments.
Skin explants (n=5), obtained from a surgical procedure performed by an ophthalmological plastic surgery clinic, were treated for 72h with a formulation containing the peptide SEQ ID No. 1 (Pal-Gln-His-Trp-Val-OH), (at 50 ppm or 100 ppm) and with the same formulation without the addition of the peptide (placebo).
After incubation with the test products as described above, the skin fragments were fixed in 4% paraformaldehyde (pH 7.4) for 24 hours. After fixation, the material was transferred to 30% sucrose solution for cryopreservation and then embedded in tissue freezing medium, followed by serial sections of approximately 10 µm thickness made by cryostat and collected directly on silanized glass slides. Then, the skin sections were stained by the Fontana Masson technique.
Subsequently, the slides were analyzed and recorded using an optical microscope coupled to a camera.

type I collagen = assay: Stimulation of type I collagen synthesis in ex vivo human skin fragments (immunofluorescence, semi-quantification); format: cell-based; details: skin explants (n=5)
Method: Example 2: Evaluation of collagen synthesis stimulation in human skin fragments.
Skin explants (n=5) obtained from a surgical procedure performed by the ophthalmologic plastic surgery clinic were treated for 72 h with a formulation containing the peptide SEQ ID No. 1 ( Pal - Gln - His- Trp - Val-OH ) (at 50 ppm or 100 ppm ) and with the same formulation without the addition of the peptide (placebo). After incubation with the test products as described above, the skin fragments were fixed in 4% paraformaldehyde (pH 7.4) for 24 h. After fixation, the material was transferred to a 30% sucrose solution for cryopreservation and then embedded in tissue freezing medium, followed by serial sections of approximately 10 µm thickness made by cryostat and collected directly on silanized glass slides. The skin sections were then subjected to the specific labeling process for type I collagen for subsequent immunofluorescence analysis; the records were obtained using a fluorescence optical microscope coupled to a photographic camera.

With `CCCCCCCCCCCCCCCC(=O)N[C@@H](CCC(N)=O)C(=O)N[C@@H](Cc1cnc[nH]1)C(=O)N[C@@H](Cc1c[nH]c2ccccc12)C(=O)N[C@H](C(=O)O)C(C)C` [SEQ ID No. 1, Pal-Gln-His-Trp-Val-OH] (Palmitoyl-QHWV-OH) as the compound, how does the “reduces melanin production compared to the placebo group” value ([1]; 50 ppm peptide in formulation) read?
Its value is 66%.

And the “inhibits pigment synthesis compared to the levels observed in the placebo group” value ([1]; 100 ppm peptide in formulation)?
Its value is 61%.

And the “stimulated collagen I production compared to the placebo group” value (type I collagen; 50 ppm peptide in formulation, 72h)?
The value was 63%.

What about the “increase in protein synthesis compared to the levels observed in the placebo group” value (type I collagen; 100 ppm peptide in formulation, 72 h, protein = type I collagen) of the same compound?
The value was 71%.
